{"source": "paper PMC5151175", "about": "(Journal of medicinal chemistry, 2016)", "key": {"HIV-1/NL4-3": {"system": "HIV-1/NL4-3", "format": "cell-based", "details": "for IC50 NL4-3: wild-type HIV-1/NL4-3 replication, mean ± SD of three separate experiments, NS = no selective anti-HIV activity (CC50/IC50 < 5)"}, "NL4-3/V370A": {"system": "NL4-3/V370A", "format": "cell-based, HIV-1", "details": "IC50(NL4-3/V370A)/IC50(NL4-3) ratio"}, "[1]": {"system": "NL4-3 infection of TZM-bl cells", "experiment": "TZM-bl assay", "format": "cell-based, HIV-1", "details": "at 2 µM; average of two tests"}, "[2]": {"system": "NL4-3 Env-mediated cell–cell fusion", "experiment": "fusion assay", "format": "cell-based, HIV-1", "details": "average of two independent tests"}, "in vitro metabolic": {"experiment": "in vitro metabolic", "format": "in vitro ADME", "details": "human, microsomes"}, "[3]": {"details": "human, in vivo; cited from earlier work"}, "HIV in MT-4 cells": {"system": "HIV in MT-4 cells", "details": "cited from earlier work; for IC50: read-out: IC50, anti-HIV activity in MT-4 cells"}, "HIV-1 integrase": {"system": "HIV-1 integrase", "details": "cited from earlier work"}, "[4]": {"system": "HIV replication in MT-2 cell", "details": "read-out: IC50, HIV replication in MT-2 cells; cited from earlier work"}}, "note": "Entries after “also recorded” stand apart in the source; their conditions may differ.", "data": [{"compound": "O=C(/C=C/c1ccc2c(c1)OCO2)N1CCNCC1", "note": "[14c]", "values": [{"measurement": "IC50 NL4-3", "setting": "HIV-1/NL4-3", "result": "inactive"}]}, {"compound": "C=C(C)[C@@H]1CC[C@]2(C(=O)N3CCN(C(=O)/C=C/c4ccc5c(c4)OCO5)CC3)CC[C@]3(C)[C@H](CC[C@@H]4[C@@]5(C)CC[C@H](OC(=O)CC(C)(C)C(=O)O)C(C)(C)[C@@H]5CC[C@]43C)[C@@H]12", "note": "[18c]", "values": [{"measurement": "RFC (resistance fold change)", "setting": "NL4-3/V370A", "result": 7.89}, {"measurement": "inhibition of NL4-3 infection of TZM-bl cells", "setting": "[1]", "result": "no inhibition; also recorded: no activity"}, {"measurement": "inhibition of NL4-3 Env-mediated cell–cell fusion", "setting": "[2]", "result": "no activity; also recorded: did not inhibit"}, {"measurement": "microsomal CLint", "setting": "in vitro metabolic", "result": 54, "unit": "µL/min/mg"}]}, {"compound": "C=C(C)[C@@H]1CC[C@]2(C(=O)NCCCCCCCNC(C)=O)CC[C@]3(C)[C@H](CC[C@@H]4[C@@]5(C)CC[C@H](O)C(C)(C)[C@@H]5CC[C@]43C)[C@@H]12", "note": "[A43D]", "values": [{"measurement": "inhibition of NL4-3 infection of TZM-bl cells", "setting": "[1]", "result": "totally inhibited"}, {"measurement": "inhibition of NL4-3 Env-mediated cell–cell fusion", "setting": "[2]", "result": "strongly inhibited"}]}, {"compound": "C=C(C)[C@@H]1CC[C@]2(C(=O)O)CC[C@]3(C)[C@H](CC[C@@H]4[C@@]5(C)CC[C@H](OC(=O)CC(C)(C)C(=O)O)C(C)(C)[C@@H]5CC[C@]43C)[C@@H]12", "note": "[compound 2, 3-O-(3′,3′-dimethylsuccinyl)-betulinic acid]", "values": [{"measurement": "elimination half-life t1/2", "setting": "[3]", "result": "56.3 to 69.5", "unit": "h"}, {"measurement": "inhibition of NL4-3 infection of TZM-bl cells", "setting": "[1]", "result": "no inhibition"}, {"measurement": "inhibition of NL4-3 Env-mediated cell–cell fusion", "setting": "[2]", "result": "no activity"}]}, {"compound": "O=C(O)/C=C/c1ccc(O)c(O)c1", "note": "[compound 5, 3,4-dihydroxycinnamic acid]", "values": [{"measurement": "IC50 NL4-3", "setting": "HIV-1/NL4-3", "result": "no selectivity"}]}, {"compound": "O=C(/C=C/c1cc(O)c(O)cc1[N+](=O)[O-])O[C@H](Cc1cc(O)c(O)cc1[N+](=O)[O-])C(=O)O", "note": "[compound 6, 6′,6″-Dinitrorosmarinic acid]", "values": [{"measurement": "anti-HIV activity in MT-4 cells", "setting": "HIV in MT-4 cells", "result": "moderate anti-HIV activity"}, {"measurement": "HIV-1 integrase inhibition", "setting": "HIV-1 integrase", "result": "potent HIV-1 integrase inhibition"}]}, {"compound": "O=C(/C=C/c1ccc(O)c2c1[C@H](C(=O)O)[C@@H](c1ccc(O)c(O)c1)O2)O[C@H](Cc1ccc(O)c(O)c1)C(=O)O", "note": "[compound 7, (+)-Lithospermic acid]", "values": [{"measurement": "HIV-1 integrase inhibitory activity", "setting": "HIV-1 integrase", "result": "submicromolar range"}]}, {"compound": "O=C(/C=C/c1ccc(O)c(O)c1)O[C@@H]1C[C@](O)(C(=O)O)C[C@@H](OC(=O)/C=C/c2ccc(O)c(O)c2)[C@H]1O", "note": "[compound 8, 3,5-Dicaffeoylquinic acid]", "values": [{"measurement": "HIV-1 integrase inhibitory activity", "setting": "HIV-1 integrase", "result": "active against HIV-1 integrase"}]}, {"compound": "C=C(C)[C@@H]1CC[C@]2(C(=O)N3CCNCC3)CC[C@]3(C)[C@H](CC[C@@H]4[C@@]5(C)CC[C@H](OC(=O)CC(C)(C)C(=O)O)C(C)(C)[C@@H]5CC[C@]43C)[C@@H]12", "note": "[compound 20]", "values": [{"measurement": "fold less active than 2 against NL4-3", "setting": "HIV-1/NL4-3; compared with 2", "result": 8, "unit": "fold"}]}, {"compound": "(+)-erythro-7′-methylcarolignan E [11a]", "values": [{"measurement": "IC50", "setting": "HIV in MT-4 cells", "result": 6.3, "unit": "µM"}]}, {"compound": "(−)-erythro-7′-methylcarolignan E [11b]", "values": [{"measurement": "IC50", "setting": "HIV in MT-4 cells", "result": 5.3, "unit": "µM"}]}, {"compound": "L-Chicoric acid [compound 9]", "values": [{"measurement": "IC50", "setting": "[4]", "result": 4.2, "unit": "µM"}]}]}
